Measurements as given in patent US20130303566A1, “METHOD FOR TREATING MACULAR DEGENERATION” (DAVID W. HILL, priority 2012, published 2013).

What was measured:
patient with AMD = conditions: human, in vivo
Procedure: To test the hypothesis that vasodilators can successfully treat AMD, TriMix injectable blend was obtained containing, in 10 ml of water, 0.4 ml ethanol, 0.3 g papaverine hydrochloride, 0.02 g phentolamine mesylate and 200 mcg prostaglandin. E1 (PGE1 or “alprostadil”), with 0.01 ml benzyl alcohol. […] The following example explores the role of administering Trimix to a patient with AMD.
Initial doses were 1 mcg alprostadil, but were upped to 2 mcg of alprostadil for a period of time and then lowered to the original dose. Thus, on a daily basis, 0.85-0.10 mL of the above TriMix blend can be injected into the patient, delivering 1-2 mcg alprostadil, 0.1-0.2 mg phentolamine and 1.5-3.0 mg of papaverine.

patients with dry AMD = conditions: 60 mcg PGE1 as alprostadil, intravenous infusion daily for 15 days, 15 patients with dry AMD; cited from earlier work
damaged macular area = test system: damaged macular area; design: species or system human; conditions: in vivo

SMILES | tolerability of high doses (patient with AMD) | trial outcome (patients with dry AMD) | effect on vision (damaged macular area)
CCCCC[C@H](O)/C=C/[C@H]1[C@H](O)CC(=O)[C@@H]1CCCCCCC(=O)O [PGE1, (11α,13E,15S)-11,15-Dihydroxy-9-osoprost-13-en-1-oic acid] | without any problems | lack of statistically significant results | 
CC(=O)Nc1ccc(O)cc1 [acetaminophen] |  |  | cause the mask of the damaged macular area to appear colored, such as bright red, can cause misty vision
CC(=O)Oc1ccccc1C(=O)O [aspirin] |  |  | cause the mask of the damaged macular area to appear colored, such as bright red, can cause misty vision
COc1ccc2cc([C@H](C)C(=O)O)ccc2c1 [naproxen sodium] |  |  | cause the mask of the damaged macular area to appear colored, such as bright red, can cause misty vision
